Source: US5849766A, “Carbamoyl substituted heterocycles” (Eli Lilly and Company, priority 1997, dated 1998)

Tested on: thromboxane receptor
Experiment: Absence of Agonist Activity (pressor response in pithed rats)
Assay type: in vivo, rat
Excerpt: 3. Absence of Agonist Activity.

| pressor response (TXA2 agonist activity) (i.v., pithed rats, doses up to 10 mg/kg) | SMILES | increase in the mean arterial pressure (0.1 mg/kg i.v., at one minute after dosing) |
| --- | --- | --- |
| absence of a pressor response | O=C(O)CCCC/C=C(\c1ccc(-c2nc(C(=O)NCCCCC3CCCCC3)co2)cc1)c1cccnc1 [Example 2, (E)-7-[4-[4-[[(4-Cyclohexylbutyl)amino]carbonyl]-2-oxazolyl]phenyl]-7-(3-pyridyl)hept-6-enoic Acid] | – |
| – | O=C(O)CCC/C=C\CC1C2CCC(C2)C1NS(=O)(=O)c1ccccc1 (centres unmarked) [Example S-145] | transient, but significant, increase in the mean arterial pressure |
